According to PMC8242095, “Crystal structure of an archaeal CorB magnesium transporter” (Nature Communications, 2021):

Key:
[1] = molecular target: T1, MtCorBΔC (Methanoculleus thermophilus, UniProt A0A1G8XA46); assay: isothermal titration calorimetry; assay type: binding
T1 construct: gene corB; residues 1-322 (TMD, AHB, CBS-pair; CorC domain deleted), C-terminal His6-tag, E. coli C41(DE3), detergent-solubilized
Source text: isothermal titration calorimetry on MtCorBΔC | MtCorBΔC has the highest affinity for ATP, followed by ADP and AMP

[2] = molecular target: T2, MtCorBCBS (Methanoculleus thermophilus, UniProt A0A1G8XA46); assay: isothermal titration calorimetry; also crystal structure […] Å; assay type: binding
T2 construct: gene corB; CBS-pair domain, residues 199-322, GST-tag cut leaving N-terminal GPLGS, E. coli BL21(DE3); crystal 7MSU came from in situ cleavage of MtCorBΔC

[3] = molecular target: the molecule itself; assay: crystal structure; MtCorBΔC_(Δloop) in 0.05% UDM with 5 mM ATP and 20 mM MgCl2; hanging drop, 0.1 M sodium citrate pH 5.5, 0.1 M Li2SO4, 0.1 M NaCl, 34% PEG400, 22 °C; 3.25 Å
[4] = molecular target: the molecule itself; assay: HDX-MS; MtCorB or MtCorBΔC in MSP1D1 nanodiscs, with and without Mg2+-ATP; exchange for 3, 30, 300 or 3000 s at 20 °C, 100 mM NaCl, 20 mM HEPES pH 7.5
[5] = molecular target: the molecule itself; assay: crystal structure; MtCorBΔC R235L in 0.05% UDM, no ATP; hanging drop, 0.1 M sodium citrate pH 5.5, 50 mM Li2SO4, 11% PEG4000, 10 mM MgSO4, 22 °C; 3.8 Å

Nc1ncnc2c1ncn2[C@@H]1O[C@H](COP(=O)(O)OP(=O)(O)O)[C@@H](O)[C@H]1O [ADP]
Kd [1]: 10.3 ± 1 µM

Nc1ncnc2c1ncn2[C@@H]1O[C@H](COP(=O)(O)O)[C@@H](O)[C@H]1O [AMP]
Kd [1]: 83 ± 17 µM

Nc1ncnc2c1ncn2[C@@H]1O[C@H](COP(=O)(O)OP(=O)(O)OP(=O)(O)O)[C@@H](O)[C@H]1O [ATP]
Kd [2]: 0.53 ± 0.05 µM
Kd [1]: 0.59 ± 0.06 µM

B1: MtCorBΔC_(Δloop) (Methanoculleus thermophilus CorB residues 1–322 Δ259–262) (domain or fragment, UniProt A0A1G8XA46 1-322, looked up)
chain: MVVIDLLIVEVVLFIAALLFSGFFSSSEVALISITRAKVHALQSQGRKGAKALDTLKRSTDAIQITTLIGSTIANVAVASLATAIGITLYGNLGIAVGLVVAAVLVLVFGEIGPKMYASRYTEELALRVSRPILFFSKLLYPVLWVTDRIEQQFAFRPGVTEPVVTEEEIKEWIDVGEEEGTIEEEERDMLYSVLRFGDTTAREVMTPRVDVVMIEDTATLESALAIFNETGFSRIPVYHERIDNIVGLLNVKDVFSAQTSATIRDLMYEPYFIPESKKIDELLKELQVKKQHMAVVLDEYGSFAGIVTVEDMLEELV
notes: CorB, Methanoculleus thermophilus, UniProt A0A1G8XA46, residues 1-322 (TMD, AHB and CBS-pair domain; CorC domain deleted) with the internal loop 259-262 deleted; Modelled: chain A residues 5-322, chain B residues 4-154 and 160-322; also called MtCorBΔC with an internal loop deletion; source: E. coli C41 (DE3), purified (Ni-NTA, SEC) in UDM
binding result [3]: binds

B2: MtCorB (residues 1–426), Methanoculleus thermophilus CorB (natural protein, UniProt A0A1G8XA46 1-426, looked up)
chain: MVVIDLLIVEVVLFIAALLFSGFFSSSEVALISITRAKVHALQSQGRKGAKALDTLKRSTDAIQITTLIGSTIANVAVASLATAIGITLYGNLGIAVGLVVAAVLVLVFGEIGPKMYASRYTEELALRVSRPILFFSKLLYPVLWVTDRIEQQFAFRPGVTEPVVTEEEIKEWIDVGEEEGTIEEEERDMLYSVLRFGDTTAREVMTPRVDVVMIEDTATLESALAIFNETGFSRIPVYHERIDNIVGLLNVKDVFSAVFRQQTSATIRDLMYEPYFIPESKKIDELLKELQVKKQHMAVVLDEYGSFAGIVTVEDMLEELVGEILDEFDEEEPEVQQLEEGIYLVDARTWVEHLNEDLDLNLPLMDTYESIGGLVIERLGHIPRRGEVVKIEESNVTLVVMQMRGRRIVKVKLIIGPPVPPTESR
notes: CorB, Methanoculleus thermophilus, UniProt A0A1G8XA46, residues 1-426; In nanodiscs of soybean polar extract and MSP1D1; filled nanodiscs were recovered on Ni-NTA; also called full-length MtCorB; source: E. coli C41 (DE3), purified (Ni-NTA, SEC), reconstituted into MSP1D1 nanodiscs; not shown: His6, C-terminal, kept
binding result [4]: binds

B3: MtCorBΔC R235L (domain or fragment, Methanoculleus thermophilus, UniProt A0A1G8XA46 1-322, looked up)
chain: MVVIDLLIVEVVLFIAALLFSGFFSSSEVALISITRAKVHALQSQGRKGAKALDTLKRSTDAIQITTLIGSTIANVAVASLATAIGITLYGNLGIAVGLVVAAVLVLVFGEIGPKMYASRYTEELALRVSRPILFFSKLLYPVLWVTDRIEQQFAFRPGVTEPVVTEEEIKEWIDVGEEEGTIEEEERDMLYSVLRFGDTTAREVMTPRVDVVMIEDTATLESALAIFNETGFSLIPVYHERIDNIVGLLNVKDVFSAVFRQQTSATIRDLMYEPYFIPESKKIDELLKELQVKKQHMAVVLDEYGSFAGIVTVEDMLEELV
notes: CorB, Methanoculleus thermophilus, UniProt A0A1G8XA46, residues 1-322 (MtCorBΔC) with R235L; also called MtCorBΔC R235L mutant; apo conformation of MtCorBΔC; source: E. coli C41 (DE3), purified (Ni-NTA, SEC) in UDM
binding result [5]: binds

B4: MtCorBΔC (residues 1–322) (domain or fragment, Methanoculleus thermophilus, UniProt A0A1G8XA46 1-322, looked up)
chain: MVVIDLLIVEVVLFIAALLFSGFFSSSEVALISITRAKVHALQSQGRKGAKALDTLKRSTDAIQITTLIGSTIANVAVASLATAIGITLYGNLGIAVGLVVAAVLVLVFGEIGPKMYASRYTEELALRVSRPILFFSKLLYPVLWVTDRIEQQFAFRPGVTEPVVTEEEIKEWIDVGEEEGTIEEEERDMLYSVLRFGDTTAREVMTPRVDVVMIEDTATLESALAIFNETGFSRIPVYHERIDNIVGLLNVKDVFSAVFRQQTSATIRDLMYEPYFIPESKKIDELLKELQVKKQHMAVVLDEYGSFAGIVTVEDMLEELV
notes: CorB, Methanoculleus thermophilus, UniProt A0A1G8XA46, residues 1-322 (CorC domain deleted); In nanodiscs of soybean polar extract and MSP1D1 (MtCorB:MSP1D1:lipid 2:10:550); filled nanodiscs were recovered on Ni-NTA; also called truncated MtCorB; MtCorB with a C-terminal CorC domain deletion; source: E. coli C41 (DE3), purified (Ni-NTA, SEC), reconstituted into MSP1D1 nanodiscs; not shown: His6, …
binding result [4]: binds
